For this test, the target named is recombinant human MGAT2 (Homo sapiens (Human), UniProt Q3SYC2). The test is described as follows: Measurement of human MGAT2 inhibitory activity. The test is classed as biochemical. To be noted: read-out: IC50 (concentration exhibiting 50% enzyme inhibition), Table 53. In a few lines: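 RapidFire ESI-MS read-out of the diolein/diolein-d5 peak ratio gave % inhibition, with no-enzyme and full-enzyme wells as 100% and 0%. Reactions ran 1 h at room temperature at pH 7.4 (phosphate, 2 mmol/L DTT), using Flag-tagged human MGAT2 membranes from Sf9 cells and a substrate solution of 30 μmol/L 2-oleoylglycerol and 10 μmol/L oleoyl-CoA.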
Chain of recombinant human MGAT2 (Q3SYC2 whole entry): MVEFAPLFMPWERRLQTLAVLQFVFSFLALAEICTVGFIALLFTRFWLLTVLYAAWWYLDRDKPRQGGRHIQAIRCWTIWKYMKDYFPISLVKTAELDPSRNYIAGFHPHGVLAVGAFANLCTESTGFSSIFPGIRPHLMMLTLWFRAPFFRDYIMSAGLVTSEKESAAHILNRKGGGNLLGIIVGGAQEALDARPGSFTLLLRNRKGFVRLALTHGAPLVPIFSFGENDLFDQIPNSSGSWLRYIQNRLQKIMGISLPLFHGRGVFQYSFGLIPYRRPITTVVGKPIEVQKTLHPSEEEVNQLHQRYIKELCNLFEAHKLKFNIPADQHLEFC
As to `CS(C)(=O)=NCCNC(=O)c1c2c(nn1-c1ccc(C#N)cn1)C[C@]1(CCc3cc(OCC(F)(F)F)ccc31)NC2=O` [II-182], the IC50 turned out to be 477 nM.
Turning to `N#CCCNC(=O)c1c2c(nn1-c1ccc(C#N)cn1)C[C@]1(CCc3cc(OCC(F)(F)F)ccc31)NC2=O` [II-183], the IC50 amounted to 35.5 nM.
With `CC(F)(F)CNC(=O)c1c2c(nn1-c1ccc(C#N)cn1)C[C@]1(CCc3cc(OCC(F)(F)F)ccc31)NC2=O` [II-184] the figure was 4.06 nM.
The figure for `N#Cc1ccc(-n2nc3c(c2C(=O)NCCSC(F)(F)F)C(=O)N[C@@]2(CCc4cc(OCC(F)(F)F)ccc42)C3)nc1` [II-185] is 28.2 nM.
The figure for `CC1(CNC(=O)c2c3c(nn2-c2ccc(C#N)cn2)C[C@]2(CCc4cc(OCC(F)(F)F)ccc42)NC3=O)COC1` [II-186] is 2.92 nM; for `N#Cc1ccc(-n2nc3c(c2C(=O)NCC2CCO2)C(=O)N[C@@]2(CCc4cc(OCC(F)(F)F)ccc42)C3)nc1` (stereo partly shown) [II-187] it is 24.5 nM.
`N#Cc1ccc(-n2nc3c(c2C(=O)NC2CC(F)(F)C2)C(=O)N[C@@]2(CCc4cc(OCC(F)(F)F)ccc42)C3)nc1` [II-188]: the IC50 was determined as 5.01 nM.
The figure for `N#Cc1ccc(-n2nc3c(c2C(=O)NC2CS(=O)(=O)C2)C(=O)N[C@@]2(CCc4cc(OCC(F)(F)F)ccc42)C3)nc1` [II-189] is 3.06 nM; for `N#Cc1ccc(-n2nc3c(c2C(=O)NCC2(C#N)CC2)C(=O)N[C@@]2(CCc4cc(OCC(F)(F)F)ccc42)C3)nc1` [II-190] it is 6.35 nM.
`N#Cc1ccc(-n2nc3c(c2C(=O)NCC2(C(F)(F)F)CC2)C(=O)N[C@@]2(CCc4cc(OCC(F)(F)F)ccc42)C3)nc1` [II-191]: the IC50 is 91.2 nM.
Regarding `N#Cc1ccc(-n2nc3c(c2C(=O)NCC2(C(F)F)CC2)C(=O)N[C@@]2(CCc4cc(OCC(F)(F)F)ccc42)C3)nc1` [II-192], the IC50 was 3.48 nM.
With `CCO[C@H]1C[C@H](n2nc3c(c2NC(=O)CS(C)(=O)=O)C(=O)N[C@@]2(CCc4cc(OCC(F)(F)F)ccc42)C3)C1` [II-193] the figure was 33.7 nM; with `CS(=O)(=O)CC(=O)Nc1c2c(nn1CCCOC(F)F)C[C@@]1(CCc3cc(OCC(F)(F)F)ccc31)NC2=O` [II-194], 1.55 nM; with `Cc1ccc(-n2nc3c(c2C(=O)NCCC(F)(F)F)C(=O)N[C@@]2(CCc4cc(OCC(F)(F)F)ccc42)C3)nc1` [II-195], 29.8 nM.
Take `Cc1ccc(-n2nc3c(c2C(=O)NCC(N)=O)C(=O)N[C@@]2(CCc4cc(OCC(F)(F)F)ccc42)C3)nc1` [II-196]: the IC50 stood at 18.7 nM.
The figure for `Cc1ccc(-n2nc3c(c2C(=O)NCC#N)C(=O)N[C@@]2(CCc4cc(OCC(F)(F)F)ccc42)C3)nc1` [II-197] is 6.79 nM; for `Cc1ccc(-n2nc3c(c2C(=O)NCC2(CO)CC2)C(=O)N[C@@]2(CCc4cc(OCC(F)(F)F)ccc42)C3)nc1` [II-198] it is 4.18 nM; for `Cc1ccc(-n2nc3c(c2C(=O)NCCS(C)(=O)=O)C(=O)N[C@@]2(CCc4cc(OCC(F)(F)F)ccc42)C3)nc1` [II-199] it is 73.6 nM.
The figure for `Cc1ccc(-n2nc3c(c2C(=O)NCC2(O)CC2)C(=O)N[C@@]2(CCc4cc(OCC(F)(F)F)ccc42)C3)nc1` [II-200] is 2.29 nM; for `Cc1ccc(-n2nc3c(c2C(=O)NCCS(N)(=O)=O)C(=O)N[C@@]2(CCOc4cc(OCC(F)(F)F)ccc42)C3)nc1` [II-204] it is 22.3 nM.
The figure for `Cc1cc(-n2nc3c(c2NC(=O)CS(C)(=O)=O)C(=O)N[C@@]2(CCc4cc(OCC(F)(F)F)ccc42)C3)nn1C` [II-205] is 3.78 nM; for `Cc1ccc(-n2nc3c(c2NC(=O)CS(C)(=O)=O)C(=O)N[C@](C)(c2ccc(OCC(F)F)cc2F)C3)nc1` [II-206] it is 5.72 nM; for `CCOc1ccc([C@]2(C)Cc3nn(-c4ccc(C)cn4)c(NC(=O)CS(C)(=O)=O)c3C(=O)N2)c(F)c1` [II-207] it is 5.86 nM.
Take `Cc1ccc(-n2nc3c(c2NC(=O)CS(C)(=O)=O)C(=O)N[C@](C)(c2ccc(OCC(C)(F)F)cc2F)C3)nc1` [II-208]: the IC50 was found to be 3.09 nM.
For `Cc1ccc(-n2nc3c(c2C(=O)NCCS(N)(=O)=O)C(=O)N[C@@]2(CCc4cc(OCC(F)(F)F)ccc42)C3)cc1F` [II-209], the IC50 was found to be 95.3 nM.
Consider `Cc1ccc(-n2nc3c(c2C(=O)NS(=O)(=O)c2ccccc2)C(=O)N[C@@]2(CCc4cc(OCC(F)(F)F)ccc42)C3)nc1` [II-210], for which the IC50 worked out at 89.2 nM.
The figure for `COCCS(=O)(=O)NC(=O)c1c2c(nn1-c1ccc(C)cn1)C[C@]1(CCc3cc(OCC(F)(F)F)ccc31)NC2=O` [II-211] is 33.1 nM; for `Cc1ccc(-n2nc3c(c2C(=O)NS(=O)(=O)CCC(F)(F)F)C(=O)N[C@@]2(CCc4cc(OCC(F)(F)F)ccc42)C3)nc1` [II-212] it is 46.7 nM; for `Cc1ccc(-n2nc3c(c2C(=O)NS(=O)(=O)Cc2ccccc2)C(=O)N[C@@]2(CCc4cc(OCC(F)(F)F)ccc42)C3)nc1` [II-213] it is 59.5 nM.
With `CS(=O)(=O)NC(=O)c1c2c(nn1-c1ccc(C#N)cn1)C[C@]1(CCc3cc(OCC(F)(F)F)ccc31)NC2=O` [II-214] the figure was 26.3 nM; with `N#Cc1ccc(-n2nc3c(c2C(=O)NS(=O)(=O)c2ccccc2)C(=O)N[C@@]2(CCc4cc(OCC(F)(F)F)ccc42)C3)nc1` [II-215], 77 nM; with `COCCS(=O)(=O)NC(=O)c1c2c(nn1-c1ccc(C#N)cn1)C[C@]1(CCc3cc(OCC(F)(F)F)ccc31)NC2=O` [II-216], 428 nM.
Take `N#Cc1ccc(-n2nc3c(c2C(=O)NS(=O)(=O)CCC(F)(F)F)C(=O)N[C@@]2(CCc4cc(OCC(F)(F)F)ccc42)C3)nc1` [II-217]: the IC50 stood at 68.9 nM.
With `N#Cc1ccc(-n2nc3c(c2C(=O)NS(=O)(=O)Cc2ccccc2)C(=O)N[C@@]2(CCc4cc(OCC(F)(F)F)ccc42)C3)nc1` [II-218] the figure was 67.8 nM; with `Cc1ccc(-n2nc3c(c2C(=O)NCC#N)C(=O)N[C@@]2(CCc4cc(OCC(F)(F)F)ccc42)C3)cc1F` [II-219], 82.5 nM; with `Cc1ccc(-n2nc3c(c2C(=O)NCC2(CO)CC2)C(=O)N[C@@]2(CCc4cc(OCC(F)(F)F)ccc42)C3)cc1F` [II-220], 8.19 nM.
The figure for `Cc1ccc(-n2nc3c(c2C(=O)NCC2(O)CC2)C(=O)N[C@@]2(CCc4cc(OCC(F)(F)F)ccc42)C3)cc1F` [II-221] is 6.87 nM.
With `Cc1ccc(-n2nc3c(c2C(=O)NCC2(C#N)CC2)C(=O)N[C@@]2(CCc4cc(OCC(F)(F)F)ccc42)C3)cc1F` [II-222] the figure was 53.4 nM; with `Cc1ccc(-n2nc3c(c2C(=O)NS(C)(=O)=O)C(=O)N[C@@]2(CCc4cc(OCC(F)(F)F)ccc42)C3)cc1F` [II-223], 52.4 nM; with `CS(=O)(=O)CC(=O)Nc1c2c(nn1-c1ccc(F)c(F)c1)C[C@]1(CCOc3cc(C4CC4)ccc31)NC2=O` [II-224], 2.21 nM.
Regarding `Cc1ccc(-n2nc3c(c2C(=O)NS(=O)(=O)C2CC2)C(=O)N[C@@]2(CCc4cc(OCC(F)(F)F)ccc42)C3)cc1F` [II-226], the IC50 is 15.8 nM.
With `Cc1ccc(-n2nc3c(c2C(=O)NCC(F)(F)F)C(=O)N[C@@]2(CCOc4cc(OCC(F)(F)F)ccc42)C3)nc1` [II-227] the figure was 96.4 nM; with `Cc1ccc(-n2nc3c(c2C(=O)NCC#N)C(=O)N[C@@]2(CCOc4cc(OCC(F)(F)F)ccc42)C3)nc1` [II-228], 37 nM; with `Cc1ccc(-n2nc3c(c2C(=O)NCC(N)=O)C(=O)N[C@@]2(CCOc4cc(OCC(F)(F)F)ccc42)C3)nc1` [II-229], 64.8 nM.
With `Cc1ccc(-n2nc3c(c2C(=O)NCC2(O)CC2)C(=O)N[C@@]2(CCOc4cc(OCC(F)(F)F)ccc42)C3)nc1` [II-230] the figure was 14.2 nM; with `Cc1ccc(-n2nc3c(c2C(=O)NCC2(C#N)CC2)C(=O)N[C@@]2(CCOc4cc(OCC(F)(F)F)ccc42)C3)nc1` [II-231], 97.8 nM; with `Cc1ccc(-n2nc3c(c2C(=O)NCC2(C(F)F)CC2)C(=O)N[C@@]2(CCOc4cc(OCC(F)(F)F)ccc42)C3)nc1` [II-232], 67.3 nM.
With `Cc1ccc(-n2nc3c(c2NC(=O)CS(C)(=O)=O)C(=O)N[C@@]2(CCc4cc(C(F)(F)F)ccc42)C3)nn1` [II-234] the figure was 5.49 nM.
For the compound `Cc1cc(-n2nc3c(c2NC(=O)CS(C)(=O)=O)C(=O)N[C@@]2(CCOc4cc(C5CC5)ccc42)C3)no1` [II-235], the IC50 came to 1.17 nM.
The figure for `CC(C)(F)COc1ccc2c(c1)CC[C@@]21Cc2nn(CCCOC(F)(F)F)c(NC(=O)CS(C)(=O)=O)c2C(=O)N1` [II-236] is 5.34 nM; for `CS(=O)(=O)CC(=O)Nc1c2c(nn1CCCOC(F)(F)F)C[C@@]1(CCc3cc(OCC(F)(F)C(F)F)ccc31)NC2=O` [II-237] it is 3.43 nM; for `Cc1ccc(-n2nc3c(c2C(=O)NS(C)(=O)=O)C(=O)N[C@@]2(CCc4cc(OCC(F)(F)F)ccc42)C3)nc1` [II-238] it is 15 nM.
With `Cc1ccc(-n2nc3c(c2C(=O)NCC#N)C(=O)N[C@@](c2ccc(OCC(F)(F)F)cc2F)(C(F)(F)F)C3)nc1` [II-239] the figure was 4.62 nM; with `Cc1ccc(-n2nc3c(c2C(=O)NCC(F)(F)F)C(=O)N[C@@](c2ccc(OCC(F)(F)F)cc2F)(C(F)(F)F)C3)nc1` [II-240], 14.3 nM.
The figure for `Cc1ccc(-n2nc3c(c2C(=O)NCC(N)=O)C(=O)N[C@@](c2ccc(OCC(F)(F)F)cc2F)(C(F)(F)F)C3)nc1` [II-241] is 24.6 nM; for `Cc1ccc(-n2nc3c(c2C(=O)NCCS(N)(=O)=O)C(=O)N[C@@](c2ccc(OCC(F)(F)F)cc2F)(C(F)(F)F)C3)nc1` [II-242] it is 25.6 nM; for `N#CCNC(=O)c1c2c(nn1-c1ccc(C#N)cn1)C[C@@]1(CCc3cc(OCC(F)(F)F)ccc31)NC2=O` [II-243] it is 1.74 nM.
As for `N#Cc1ccc(-n2nc3c(c2C(=O)NCC(F)(F)F)C(=O)N[C@]2(CCc4cc(OCC(F)(F)F)ccc42)C3)nc1` [II-244], the IC50 stood at 4.81 nM.

The values above are taken from patent US11198695B2, “Fused ring derivative having MGAT-2 inhibitory activity” (Shionogi & Co., Ltd., priority 2017, dated 2021).
